For data set [1], the target named is T1, Cholinesterase (Homo sapiens, UniProt P06276). As to the kind of experiment: Inhibition of BChE (unknown origin) using butyrylthiocholine iodide as substrate incubated for 15 mins by DTNB reagent based ELISA.
Data set [2] addresses T2, Amine oxidase [flavin-containing] A (Homo sapiens, UniProt P21397).
T2 sequence (P21397 whole entry): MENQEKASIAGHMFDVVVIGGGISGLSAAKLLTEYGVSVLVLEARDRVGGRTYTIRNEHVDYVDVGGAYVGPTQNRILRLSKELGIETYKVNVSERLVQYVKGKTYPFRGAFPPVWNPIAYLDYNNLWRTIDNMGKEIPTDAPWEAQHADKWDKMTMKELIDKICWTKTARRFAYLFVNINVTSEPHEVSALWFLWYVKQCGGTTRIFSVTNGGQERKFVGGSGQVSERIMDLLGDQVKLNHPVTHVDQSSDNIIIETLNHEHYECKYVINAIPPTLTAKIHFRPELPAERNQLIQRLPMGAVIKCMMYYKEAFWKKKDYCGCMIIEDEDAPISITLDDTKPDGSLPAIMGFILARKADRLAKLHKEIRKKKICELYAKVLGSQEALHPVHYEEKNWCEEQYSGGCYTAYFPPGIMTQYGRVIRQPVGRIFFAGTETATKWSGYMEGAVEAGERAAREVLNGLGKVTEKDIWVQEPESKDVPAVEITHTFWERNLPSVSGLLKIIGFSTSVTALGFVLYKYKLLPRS
As to the kind of experiment: Inhibition of MAO-A (unknown origin) measured after 30 to 90 sec by absorbance based assay. The note with it: for inhibition (INH): human, time 30-90 sec.

A short description of data set [3]: Selectivity index, ratio of IC50 for inhibition of BChE (unknown origin) using butyrylthiocholine iodide as substrate to IC50 for inhibition of AChE (unknown origin) using acetylthiocholine iodide as substrate.
In data set [4] the target is T3, Acetylcholinesterase (Homo sapiens, UniProt P22303). Put plainly: Inhibition of AChE (unknown origin) using acetylthiocholine iodide as substrate incubated for 15 mins by DTNB reagent based ELISA.
T3 sequence (P22303 whole entry): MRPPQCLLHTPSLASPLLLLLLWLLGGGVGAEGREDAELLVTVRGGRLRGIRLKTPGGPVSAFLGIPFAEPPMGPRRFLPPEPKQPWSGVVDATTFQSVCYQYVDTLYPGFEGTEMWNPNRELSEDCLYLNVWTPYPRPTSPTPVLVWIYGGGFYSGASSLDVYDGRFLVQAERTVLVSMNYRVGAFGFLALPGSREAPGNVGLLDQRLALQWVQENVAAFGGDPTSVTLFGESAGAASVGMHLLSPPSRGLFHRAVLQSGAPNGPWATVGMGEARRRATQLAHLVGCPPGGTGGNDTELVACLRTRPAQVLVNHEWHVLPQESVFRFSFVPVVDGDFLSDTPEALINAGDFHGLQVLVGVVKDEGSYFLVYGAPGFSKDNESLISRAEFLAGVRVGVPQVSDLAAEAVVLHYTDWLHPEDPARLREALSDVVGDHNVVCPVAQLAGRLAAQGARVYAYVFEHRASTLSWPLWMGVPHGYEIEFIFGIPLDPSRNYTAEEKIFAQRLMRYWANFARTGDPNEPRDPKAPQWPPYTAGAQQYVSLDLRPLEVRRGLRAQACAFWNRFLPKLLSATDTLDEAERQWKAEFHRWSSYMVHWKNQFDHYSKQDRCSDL
The nature of data set [5]: Antioxidant activity assessed as DPPH radical scavenging activity measured after 30 mins by spectrophotometric analysis. It counts as functional.
The target in data set [6] is T4, Amine oxidase [flavin-containing] B (Homo sapiens, UniProt P27338).
T4 sequence (P27338 whole entry): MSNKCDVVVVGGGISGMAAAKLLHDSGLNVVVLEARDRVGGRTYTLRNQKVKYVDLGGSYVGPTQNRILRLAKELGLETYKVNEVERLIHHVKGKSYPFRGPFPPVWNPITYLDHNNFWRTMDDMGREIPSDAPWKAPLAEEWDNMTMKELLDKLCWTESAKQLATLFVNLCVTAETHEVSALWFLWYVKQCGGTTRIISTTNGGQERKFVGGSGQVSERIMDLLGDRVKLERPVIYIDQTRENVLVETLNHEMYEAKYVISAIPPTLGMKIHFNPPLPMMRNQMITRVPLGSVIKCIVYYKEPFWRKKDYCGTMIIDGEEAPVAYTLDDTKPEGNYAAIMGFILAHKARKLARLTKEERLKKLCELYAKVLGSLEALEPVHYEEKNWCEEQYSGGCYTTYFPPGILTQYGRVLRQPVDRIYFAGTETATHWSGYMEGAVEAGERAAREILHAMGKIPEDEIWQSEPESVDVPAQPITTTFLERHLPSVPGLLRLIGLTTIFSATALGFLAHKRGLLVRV
Put plainly: Inhibition of human recombinant MAO-B expressed in baculovirus infected BTI insect cells measured after 30 to 90 sec by absorbance based assay. As to conditions: for inhibition (INH): human, bti, time 30-90 sec.

The target in data set [7] is T3, Acetylcholinesterase. Put plainly: Potency index, ratio of donepezil IC50 to test compound IC50 for inhibition of AChE (unknown origin) using acetylthiocholine iodide as substrate incubated for 15 mins by DTNB reagent based ELISA.
In data set [8] the target is T3, Acetylcholinesterase. As to the kind of experiment: Inhibition of human recombinant AChE using acetylthiocholine iodide as substrate preincubated for 5 mins followed by substrate addition and measured after 2 mins by absorbance based microplate reader.
In data set [9] the target is T1, Cholinesterase. Put plainly: Inhibition of human BChE using butyrylthiocholine iodide as substrate preincubated for 5 mins followed by substrate addition and measured after 2 mins by absorbance based microplate reader.

Each structure is given as a SMILES string. Structures can show the parent of a compound that is named as a salt. Calls of active or inactive are those of the source. The calls are words filed in the database; no cut-off is given here.

T1 sequence (P06276 whole entry): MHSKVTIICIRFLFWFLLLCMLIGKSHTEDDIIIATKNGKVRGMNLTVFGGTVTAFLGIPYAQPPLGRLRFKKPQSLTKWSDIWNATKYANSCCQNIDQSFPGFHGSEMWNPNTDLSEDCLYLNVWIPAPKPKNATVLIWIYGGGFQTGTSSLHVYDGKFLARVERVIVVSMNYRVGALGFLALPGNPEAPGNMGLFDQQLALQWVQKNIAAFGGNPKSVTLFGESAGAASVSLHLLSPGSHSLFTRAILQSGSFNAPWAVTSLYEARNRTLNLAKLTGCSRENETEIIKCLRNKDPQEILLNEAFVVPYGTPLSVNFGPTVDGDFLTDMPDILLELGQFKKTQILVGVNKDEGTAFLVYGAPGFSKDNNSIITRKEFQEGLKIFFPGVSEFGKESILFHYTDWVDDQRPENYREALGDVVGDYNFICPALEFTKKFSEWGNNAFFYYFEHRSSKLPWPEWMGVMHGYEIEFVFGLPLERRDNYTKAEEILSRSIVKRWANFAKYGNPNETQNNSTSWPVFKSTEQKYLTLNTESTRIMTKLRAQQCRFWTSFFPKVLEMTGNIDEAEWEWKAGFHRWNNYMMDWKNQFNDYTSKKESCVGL

As to `CCCCOc1cc(-c2nc(-c3ccccc3)no2)ccc1N`, the IC50 is 11.5 µM against Cholinesterase [1], 0.191 µM against Acetylcholinesterase [4] and 59.2 µM in data set [5]. Besides, the “inhibition (INH)” value in data set [2] and in data set [6] was “Not Active” each time. Also, the Ratio IC50 in data set [3] stood at 60.3.

Turning to `CCCNC(C)C(=O)Nc1c(C)csc1-c1nc(Cc2ccccc2)no1` (centres undefined), the IC50 against Cholinesterase [1] was 41.4 µM; in data set [2] it was 197 µM; against Acetylcholinesterase [4], 0.048 µM; in data set [5], 1350 µM; in data set [6], 74.7 µM. The Ratio IC50 was found to be 856 in data set [3] and 1.01 on Acetylcholinesterase [7].

Consider `CCCNC(C)C(=O)Nc1c(C)csc1-c1nc(C)no1` (centres undefined), for which the IC50 came out at 125 µM against Cholinesterase [1], 1260 µM in [2] and 0.201 µM on Acetylcholinesterase [4]. Also, in data set [3], the Ratio IC50 was 622. In [5], the outcome was inactive. In addition, the “inhibition (INH)” value in data set [6] is listed as “Not Active”.

`Cc1cc(NS(=O)(=O)c2ccc(-n3cc(COc4ccccc4-c4nc(-c5ccc(C(F)(F)F)cc5)no4)nn3)cc2)no1`: the inhibition result at Cholinesterase [1] and at Acetylcholinesterase [4] was “inactive” in each case. The compound further displayed an IC50 in data set [2] of 273 µM. Besides, the outcome in [5] was inactive. In [6], the “inhibition (INH)” value was “Not Active”.

With `CC(CCCCn1c(=O)c2c(ncn2C)n(C)c1=O)=NNC(=O)COc1ccccc1-c1nc(Cc2ccccc2)no1`, the inhibition entry on Cholinesterase [1] and at Acetylcholinesterase [4] was “inactive” each time. For the same compound, in data set [2], the IC50 came out at 957 µM. Moreover, the result in data set [5] was inactive. The “inhibition (INH)” value in data set [6] is “Not Active”.

For `Cc1cc(NS(=O)(=O)c2ccc(-n3cc(COc4ccccc4-c4nc(Cc5ccccc5)no4)nn3)cc2)no1`, on Cholinesterase [1], the inhibition result was “inactive”. The results for the IC50 (in data set [2]; against Acetylcholinesterase [4]) were 533 µM and 0.103 µM, respectively. Moreover, the Ratio IC50 at Acetylcholinesterase [7] is 1.01. For the same compound, in [5], the result was inactive. Further, in data set [6], the “inhibition (INH)” value is “Not Active”.

Regarding `CCCNC(C)C(=O)Nc1c(C)csc1-c1nc(-c2ccccc2N)no1` (centres undefined), the IC50 came out at 54.5 µM at Cholinesterase [1]; 248 µM in data set [2]; 0.121 µM at Acetylcholinesterase [4]; 959 µM in data set [5]; 289 µM in data set [6]. Also, the Ratio IC50 stood at 449 in data set [3] and 1.01 on Acetylcholinesterase [7].

As to `Cc1cc(=O)oc2cc(OCc3ccc(-c4noc([C@@H]5CCCN5)n4)cc3)ccc12`, the results for the IC50 at Acetylcholinesterase [8] and at Cholinesterase [9] were 77.6 µM and 8.17 µM, respectively.

As for `Cc1noc(-c2ccc(N)cc2)n1`, the results for the IC50 (against Cholinesterase [1]; against Acetylcholinesterase [4]; in [5]) were 138 µM, 0.104 µM and 105 µM, respectively. Also, the “inhibition (INH)” value in data set [2] and in data set [6] was “Not Active” throughout. The figures for the Ratio IC50 (in [3]; on Acetylcholinesterase [7]) were 1320 and 1.01, respectively.

For `OC(CCN1CCCCC1)(c1ccccc1)C1CC2C=CC1C2` (centres undefined) [BIPERIDEN HYDROCHLORIDE], the IC50 in [6] is 266 µM.

In the case of `CCCNC(C)C(=O)Nc1c(C)csc1-c1nc(-c2ccccc2)no1` (centres undefined), the IC50 was found to be 33.2 µM against Cholinesterase [1]; 380 µM in data set [2]; 0.102 µM on Acetylcholinesterase [4]; 1150 µM in data set [5]; 225 µM in data set [6]. The figures for the Ratio IC50 (in data set [3]; on Acetylcholinesterase [7]) were 325 and 1.01, respectively.

With `CCCCOc1cc(-c2nc(C)no2)ccc1N`, the IC50 was 47.6 µM at Cholinesterase [1] and 0.016 µM at Acetylcholinesterase [4]. For the same compound, the “inhibition (INH)” value in data set [2] and in data set [6] was “Not Active” throughout. The Ratio IC50 was 3010 in data set [3] and 1.01 on Acetylcholinesterase [7]. Also, the result in [5] was inactive.

As to `Cc1cc(NS(=O)(=O)c2ccc(NC(=O)COc3ccccc3-c3nc(-c4ccccc4)no3)cc2)no1`, the IC50 stood at 26.7 µM against Cholinesterase [1] and 0.094 µM against Acetylcholinesterase [4]. The “inhibition (INH)” value in data set [2] and in [6] was “Not Active” throughout. Also, the values for the Ratio IC50 (in [3]; on Acetylcholinesterase [7]) were 283 and 1.01, respectively. Moreover, the outcome in [5] was inactive.

Consider `O=C1O[C@H]([C@@H](O)CO)C(O)=C1O` [ASCORBIC ACID], for which the IC50 in [5] was determined as 74.5 µM.

With `CC(CCCCn1c(=O)c2c(ncn2C)n(C)c1=O)=NNC(=O)COc1ccccc1-c1nc(-c2ccccc2)no1`, the IC50 worked out at 15 µM against Cholinesterase [1] and 0.094 µM on Acetylcholinesterase [4]. The “inhibition (INH)” value in data set [2] and in data set [6] was “Not Active” throughout. In addition, the Ratio IC50 in data set [3] amounted to 159; on Acetylcholinesterase [7], 1.01. In addition, the result in [5] was inactive.

Regarding `Cc1cc(NS(=O)(=O)c2ccc(-n3cc(COc4ccccc4-c4nc(-c5ccccc5)no4)nn3)cc2)no1`, the IC50 against Cholinesterase [1] was 26.1 µM; against Acetylcholinesterase [4], 0.104 µM; in data set [5], 56.7 µM. Further, the “inhibition (INH)” value in [2] and in data set [6] was “Not Active” in each case. The Ratio IC50 in data set [3] came out at 250; at Acetylcholinesterase [7], 1.01.

On to `Nc1ccc(-c2nc(-c3ccccc3N)no2)cc1`, for which the IC50 on Cholinesterase [1] came to 85.6 µM; on Acetylcholinesterase [4] it was 0.201 µM. The “inhibition (INH)” value in data set [2] and in data set [6] was “Not Active” in each case. Also, the Ratio IC50 in data set [3] was found to be 427. Also, the result in data set [5] was inactive.

With `CC(=NNC(=O)COc1ccccc1-c1nc(Cc2ccccc2)no1)c1nnn(-c2ccc(S(N)(=O)=O)cc2)c1C`, the inhibition result at Cholinesterase [1] and on Acetylcholinesterase [4] was “inactive” each time. In addition, the “inhibition (INH)” value in data set [2] and in data set [6] was “Not Active” in each case. Moreover, the outcome in data set [5] was inactive.

The values are drawn from ChEMBL document CHEMBL5532757, “Design, synthesis, and biological evaluation of 1,2,4-oxadiazole-based derivatives as multitarget anti-Alzheimer agents” (RSC Med Chem, 2024).
